Data reported in patent US20260166039A1 (SCHRÖDINGER, INC., priority 2022, published 2026).
Like-named read-outs stand apart in the source and are kept apart here.

Experiments:
[1] = tested on: phosphorylation of Cdc2 Y15 (Wee1 substrate) in A427 cells; experiment: Phosphorylated Cdc2 MSD Electrochemiluminescence Assay; assay type: cell-based; conditions: Homo sapiens
Outline: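 Read-out: percent residual phospho-Cdc2 Y15 relative to DMSO and positive-control Wee1 inhibitor, measured by MSD electrochemiluminescence capture/detection antibody assay in cell lysates. A427 cells received duplicate 3-fold compound dilution series 20 h post-seeding, with 6 h total incubation at 37 °C.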

[2] = target: T1, Wee1 kinase domain (Homo sapiens, UniProt P30291); experiment: Wee1 Kinase Biochemical Assay (ADP-Glo); conditions: 15 uM ATP
T1 construct: Wee1 kinase domain was purchased from Carna (catalog #05-177); purchased Carna 05-177
Outline: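 ADP-Glo detection of ADP produced after 4 h at 25° C by 1 nM Wee1 kinase domain on 2 ng/mL poly(Lys,Tyr 4:1) with 15 uM ATP. Buffer: 40 mM Tris-HCl, 20 mM MgCl2, 0.1 mg/mL BSA, 2 mM DTT. Inhibition is relative to DMSO (high) and saturating Wee1 inhibitor (low) controls.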

[3] = A-427, class symbols, read-out: A427 pCDC2 MSD IC50
[4] = class symbols, 1 nM Wee1 enzyme, 4 hours at 25° C.

T1 sequence (P30291 299-569 limits assumed): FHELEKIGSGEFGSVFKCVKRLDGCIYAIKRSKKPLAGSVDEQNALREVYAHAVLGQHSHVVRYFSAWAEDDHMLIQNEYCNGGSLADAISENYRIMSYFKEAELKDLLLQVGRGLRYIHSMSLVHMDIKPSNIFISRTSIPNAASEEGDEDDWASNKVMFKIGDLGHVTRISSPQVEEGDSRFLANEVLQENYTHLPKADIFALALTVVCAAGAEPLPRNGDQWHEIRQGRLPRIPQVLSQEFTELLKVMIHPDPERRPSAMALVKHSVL

Compound | IC50 [1, 3] [nM] | IC50 [2, 4] [nM] | IC50 ([1]; A-427, pCDC2 MSD) [nM] | IC50 ([2]; Wee1 kinase domain, ADP-Glo) [nM]
CN1CCC(n2ccc(Nc3ncc4c(n3)N(c3cccc(C(C)(C)O)n3)[C@@H]3CC(C)(C)OC[C@]43C)cc2=O)CC1 (single isomer, unassigned) [Example 810] | 100 to 1000 | < 10 | – | –
C[C@H]1CCC(=O)N1c1cccc(N2c3nc(Nc4cnn(C5CCN(C)CC5)c4)ncc3C3(C)COC(C)(C)CC23)n1 (stereo in doubt) [Example 556, (S)-5-methyl-1-(6-((4bR,8aR)-4b,7,7-trimethyl-2-((1-(1-methylpiperidin-4-yl)-1H-pyrazol-4-yl)amino)-4b,7,8,8a-tetrahydropyrano[3′,4′:4,5]pyrrolo[2,3-d]pyrimidin-9(5H)-yl)pyridin-2-yl)pyrrolidin-2-one] | 100 to 1000 | < 10 | – | –
CN[C@@H](C)c1cccc(N2c3nc(Nc4ccc(N5C[C@@H]6C[C@H]5CO6)cc4)ncc3[C@@]3(C)COC(C)(C)C[C@@H]23)n1 (single isomer, unassigned) [Example 581] | 100 to 1000 | < 10 | – | –
Cc1ncc(Nc2ncc3c(n2)N(c2cccc(N=S(C)(C)=O)n2)[C@@H]2CC(C)(C)OC[C@]32C)cn1 (single isomer, unassigned) [Example 373] | – | – | 100 to 1000 | < 10
CC1(C)C[C@H]2N(c3cccc(N4CCOC4=O)n3)c3nc(Nc4ccc(O[C@@H]5CCNC5)cc4)ncc3[C@@]2(C)CO1 [Example 622, 3-(6-((4bR,8aR)-4b,7,7-trimethyl-2-((4-(((R)-pyrrolidin-3-yl)oxy)phenyl)amino)-4b,7,8,8a-tetrahydropyrano[3′,4′:4,5]pyrrolo[2,3-d]pyrimidin-9(5H)-yl)pyridin-2-yl)oxazolidin-2-one] | 100 to 1000 | < 10 | – | –
CN[C@@H]1CCN(c2ccc(Nc3ncc4c(n3)N(c3cccc(N5C(=O)OC[C@@H]5C)n3)[C@@H]3CC(C)(C)OC[C@]43C)cc2)C1 (single isomer, unassigned) [Example 319] | – | – | 100 to 1000 | < 10
CN1CC[C@H](n2cc(Nc3ncc4c(n3)N(c3cccc(N=S(C)(C)=O)n3)[C@@H]3CC(C)(C)OC[C@]43C)cn2)C1 (single isomer, unassigned) [Example 198] | – | – | 100 to 1000 | < 10
CN1CCCC(n2cc(Nc3ncc4c(n3)N(c3cccc(N=S(C)(C)=O)n3)C3CC(C)(C)OCC43C)cn2)C1 (single isomer, unassigned) [Example 202] | – | – | 100 to 1000 | < 10
CNCc1cccc(N2c3nc(Nc4ccc(-c5cnn(C)c5)c(C)c4)ncc3[C@@]3(C)COC(C)(C)C[C@@H]23)n1 (single isomer, unassigned) [Example 464] | 100 to 1000 | < 10 | – | –
CC1(C)C[C@H]2N(c3cccc(P(C)(C)=O)n3)c3nc(Nc4ccn([C@H]5CCOC5)c(=O)c4)ncc3[C@@]2(C)CO1 [Example 782, 4-(((4bR,8aR)-9-(6-(dimethylphosphoryl)pyridin-2-yl)-4b,7,7-trimethyl-4b,5,7,8,8a,9-hexahydropyrano[3′,4′:4,5]pyrrolo[2,3-d]pyrimidin-2-yl)amino)-1-((S)-tetrahydrofuran-3-yl)pyridin-2(1H)-one] | < 100 | < 10 | – | –
CNCc1cccc(N2c3nc(Nc4ccc(-n5ccnc5)c(F)c4)ncc3[C@@]3(C)COC(C)(C)C[C@@H]23)n1 (single isomer, unassigned) [Example 466] | 1000 to 10000 | < 10 | – | –
CN1C[C@H]2C[C@@H]1CN2c1ccc(Nc2ncc3c(n2)N(c2cccc(N=S(C)(C)=O)n2)[C@@H]2CC(C)(C)OC[C@]32C)cc1 (single isomer, unassigned) [Example 122] | – | – | < 100 | < 10
CC1(C)C[C@H]2N(c3ccc4c(n3)[C@@](C)(N)CC4)c3nc(Nc4ccc(N5CCOCC5)cc4)ncc3[C@@]2(C)CO1 (single isomer, unassigned) [Example 565] | 100 to 1000 | < 10 | – | –
CN1CC[C@@H]2CN(c3ccc(Nc4ncc5c(n4)N(c4cccc(N6CCCC6=O)n4)[C@@H]4CC(C)(C)OC[C@]54C)cc3)C[C@@H]21 [Example 686, 1-(6-((4bR,8aR)-4b,7,7-trimethyl-2-((4-((3aR,6aR)-1-methylhexahydropyrrolo[3,4-b]pyrrol-5(1H)-yl)phenyl)amino)-4b,7,8,8a-tetrahydropyrano[3′,4′:4,5]pyrrolo[2,3-d]pyrimidin-9(5H)-yl)pyridin-2-yl)pyrrolidin-2-one] | 100 to 1000 | < 10 | – | –
Cc1cc(Nc2ncc3c(n2)N(c2cccc(N=S(C)(C)=O)n2)[C@@H]2CC(C)(C)OC[C@]32C)ccc1[C@@H]1COCCN1 (single isomer, unassigned) [Example 114] | – | – | < 100 | < 10
CNCc1cccc(N2c3nc(Nc4ccc5c(c4)C(=O)N(C)CC5(C)C)ncc3[C@@]3(C)COC(C)(C)C[C@@H]23)n1 (single isomer, unassigned) [Example 92] | – | – | 100 to 1000 | < 10
CN=S1(=O)CCN(c2ccc(Nc3ncc4c(n3)N(c3cccc(CNC)n3)[C@@H]3CC(C)(C)OC[C@]43C)cc2)CC1 (single isomer, unassigned) [Example 65] | – | – | 100 to 1000 | < 10
CC1(C)C[C@H]2N(c3cccc(N=S4(=O)CCCC4)n3)c3nc(NC(=O)C4CC4)ncc3[C@@]2(C)CO1 (single isomer, unassigned) [Example 400] | 100 to 1000 | < 10 | – | –
CN1CC[C@@H](c2ccc(Nc3ncc4c(n3)N(c3cccc(N=S(C)(C)=O)n3)[C@@H]3CC(C)(C)OC[C@]43C)cc2)C1 (single isomer, unassigned) [Example 129] | – | – | < 100 | < 10
CN1CCC(n2cc(Nc3ncc4c(n3)N(c3cccc(N=S(C)(C)=O)n3)[C@H]3CC(C)(C)OC[C@@]43C)cn2)CC1 (single isomer, unassigned) [Example 101] | – | – | 1000 to 10000 | 100 to 1000
C[C@H]1COC(=O)N1c1cccc(N2c3nc(Nc4cn(C5CCN(C)CC5)nn4)ncc3[C@@]3(C)COC(C)(C)C[C@@H]23)n1 (single isomer, unassigned) [Example 253] | – | – | 100 to 1000 | < 10
CN1CCC[C@H]1c1ccc(Nc2ncc3c(n2)N(c2cccc(N=S(C)(C)=O)n2)[C@@H]2CC(C)(C)OC[C@]32C)cc1 (single isomer, unassigned) [Example 126] | – | – | < 100 | < 10
CC1(C)C[C@H]2N(c3cccc([C@H]4CCCN4)n3)c3nc(Nc4ccn(C5CCOCC5)c(=O)c4)ncc3[C@@]2(C)CO1 (single isomer, unassigned) [Example 394] | – | – | 1000 to 10000 | < 10
Cc1cc(Nc2ncc3c(n2)N(c2cccc(N=S(C)(C)=O)n2)[C@@H]2CC(C)(C)OC[C@]32C)cnn1 (single isomer, unassigned) [Example 370] | – | – | 100 to 1000 | < 10
CN1C[C@H]2C[C@@H]1CN2c1ccc(Nc2ncc3c(n2)N(c2ccn(C)n2)[C@@H]2CC(C)(C)OC[C@]32C)cc1 (single isomer, unassigned) [Example 520] | 1000 to 10000 | < 10 | – | –
CN1CC[C@H]2CN(c3ccc(Nc4ncc5c(n4)N(c4cccc(N6CCCC6=O)n4)[C@@H]4CC(C)(C)OC[C@]54C)cc3)C[C@H]21 [Example 688, 1-(6-((4bR,8aR)-4b,7,7-trimethyl-2-((4-((3aS,6aS)-1-methylhexahydropyrrolo[3,4-b]pyrrol-5(1H)-yl)phenyl)amino)-4b,7,8,8a-tetrahydropyrano[3′,4′:4,5]pyrrolo[2,3-d]pyrimidin-9(5H)-yl)pyridin-2-yl)pyrrolidin-2-one] | < 100 | < 10 | – | –
